Measurements reported in patent US11480877B2, “Resist composition, method for forming resist pattern, and polyphenol compound used therein” (Mitsubishi Gas Chemical Company, Inc., priority 2015, dated 2022).

Test: Safe solvent solubility test of compound
Assay type: physicochemical
Details: for Solubility in CHN (amount of dissolution) / Solubility in PGME (amount of dissolution) / Solubility in PGME A (amount of dissolution): 23° C., ultrasonic waves 30 minutes, visual observation; for Solubility in PGME A (amount of dissolution) / Solubility in safe solvents (in words): PGMEA; for Solubility in safe solvents (in words): safe solvents PGME; for Solubility in CHN (amount of dissolution) / Solubility in safe solvents (in words): CHN
Procedure: The solubilities of the compound in PGME, PGMEA, and CHN were evaluated according to the following criteria utilizing the amount of dissolution in each solvent. The amount of dissolution was measured at 23° C. by precisely weighing the compound into a test tube, adding a subject solvent so as to attain a predetermined concentration, applying ultrasonic waves for 30 minutes in an ultrasonic cleaner, and visually observing the subsequent state of the fluid.
A: 5.0% by mass≤Amount of dissolution
B: 2.0% by mass≤Amount of dissolution<5.0% by mass
C: Amount of dissolution<2.0% by mass • (2) Storage Stability and Thin Film Formability of Resist Composition

Solubility in CHN (amount of dissolution) | Solubility in PGME (amount of dissolution) | Solubility in PGME A (amount of dissolution) | Solubility in safe solvents (in words) | Compound
A (5.0% by mass ≤ Amount of dissolution) | A (5.0% by mass ≤ Amount of dissolution) | A (5.0% by mass ≤ Amount of dissolution) | – | Oc1ccc2c3c(ccc2c1)Oc1ccc2cc(O)ccc2c1C3c1ccc(-c2ccccc2)cc1 [Production Example 1, reference compound]
A (5.0% by mass ≤ Amount of dissolution) | A (5.0% by mass ≤ Amount of dissolution) | A (5.0% by mass ≤ Amount of dissolution) | high solubility | Oc1ccc2c3c(ccc2c1)Oc1ccc2cc(O)ccc2c1C3c1cccc(I)c1 [Synthesis Example 1]
A (5.0% by mass ≤ Amount of dissolution) | A (5.0% by mass ≤ Amount of dissolution) | A (5.0% by mass ≤ Amount of dissolution) | high solubility | Oc1ccc2c3c(ccc2c1)Oc1ccc2cc(O)ccc2c1C3c1ccc(I)cc1 [Synthesis Example 2]
A (5.0% by mass ≤ Amount of dissolution) | A (5.0% by mass ≤ Amount of dissolution) | A (5.0% by mass ≤ Amount of dissolution) | high solubility | COc1cc(C2c3c(ccc4cc(O)ccc34)Oc3ccc4cc(O)ccc4c32)cc(I)c1O [Synthesis Example 3]
A (5.0% by mass ≤ Amount of dissolution) | A (5.0% by mass ≤ Amount of dissolution) | C (Amount of dissolution <2.0% by mass) | high solubility | Oc1ccc2ccc3c(c2c1)C(c1ccc(I)cc1)c1c(ccc2ccc(O)cc12)O3 [Synthesis Example 5]
A (5.0% by mass ≤ Amount of dissolution) | A (5.0% by mass ≤ Amount of dissolution) | A (5.0% by mass ≤ Amount of dissolution) | high solubility | COc1cc(C2c3c(ccc4ccc(O)cc34)Oc3ccc4ccc(O)cc4c32)cc(I)c1O [Synthesis Example 6]

Compound | Solubility in CHN (amount of dissolution) | Solubility in PGME (amount of dissolution) | Solubility in PGME A (amount of dissolution) | Solubility in safe solvents (in words)
Oc1ccc2ccc3c(c2c1)C(c1cccc(I)c1)c1c(ccc2ccc(O)cc12)O3 [Synthesis Example 4] | B (2.0% by mass ≤ Amount of dissolution <5.0% by mass) | A (5.0% by mass ≤ Amount of dissolution) | A (5.0% by mass ≤ Amount of dissolution) | high solubility
